Data: paper PMC3069647 (Journal of medicinal chemistry, 2011)
pIC50: −log10 of the molar value.

Assays:
human Pgp [1] = molecular target: T1, human Pgp (Homo sapiens, UniProt P08183); test: Inhibition of Pgp-mediated Rhodamine 123 efflux in L5178 MDR1 cells; conditions: mouse T lymphoma L5178 MDR1 cells
human Pgp [2] = test: as above; conditions: mouse T lymphoma L5178 MDR1 cells
Pgp = conditions: cited from earlier work
human Pgp [3] = molecular target: T1, human Pgp

T1 sequence (P08183 whole entry): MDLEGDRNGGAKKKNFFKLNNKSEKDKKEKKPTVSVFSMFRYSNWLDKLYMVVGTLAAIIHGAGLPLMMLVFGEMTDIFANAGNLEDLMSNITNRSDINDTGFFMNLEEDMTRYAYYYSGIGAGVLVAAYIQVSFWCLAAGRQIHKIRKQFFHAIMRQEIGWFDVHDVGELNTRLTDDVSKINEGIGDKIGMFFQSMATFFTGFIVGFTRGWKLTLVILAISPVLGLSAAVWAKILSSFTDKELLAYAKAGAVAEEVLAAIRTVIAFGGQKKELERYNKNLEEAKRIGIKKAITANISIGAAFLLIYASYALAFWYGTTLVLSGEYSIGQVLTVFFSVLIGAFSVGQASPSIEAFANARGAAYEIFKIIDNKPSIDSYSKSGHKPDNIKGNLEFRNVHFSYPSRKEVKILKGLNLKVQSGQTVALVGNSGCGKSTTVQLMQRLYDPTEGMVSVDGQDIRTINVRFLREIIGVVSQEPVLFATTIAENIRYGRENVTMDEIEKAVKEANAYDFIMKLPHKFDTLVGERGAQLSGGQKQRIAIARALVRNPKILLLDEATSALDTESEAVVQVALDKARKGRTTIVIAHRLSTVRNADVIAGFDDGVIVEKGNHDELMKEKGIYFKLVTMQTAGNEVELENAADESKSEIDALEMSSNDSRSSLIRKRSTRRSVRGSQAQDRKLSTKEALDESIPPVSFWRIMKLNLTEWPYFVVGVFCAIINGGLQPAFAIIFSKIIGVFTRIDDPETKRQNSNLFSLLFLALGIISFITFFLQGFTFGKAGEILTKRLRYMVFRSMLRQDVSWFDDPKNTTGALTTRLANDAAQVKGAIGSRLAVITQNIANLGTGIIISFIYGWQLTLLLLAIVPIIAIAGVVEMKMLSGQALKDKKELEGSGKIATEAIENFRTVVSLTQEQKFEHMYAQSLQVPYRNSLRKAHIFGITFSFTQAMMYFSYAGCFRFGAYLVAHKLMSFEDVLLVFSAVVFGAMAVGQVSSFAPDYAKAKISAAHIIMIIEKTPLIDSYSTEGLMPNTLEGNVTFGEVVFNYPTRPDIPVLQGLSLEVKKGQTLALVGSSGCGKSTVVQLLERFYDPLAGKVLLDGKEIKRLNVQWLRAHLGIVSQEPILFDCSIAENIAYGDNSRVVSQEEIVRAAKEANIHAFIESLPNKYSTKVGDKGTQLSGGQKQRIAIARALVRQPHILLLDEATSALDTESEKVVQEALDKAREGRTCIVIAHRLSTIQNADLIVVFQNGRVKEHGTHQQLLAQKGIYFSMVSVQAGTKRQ

Ability to inhibit Pgp-mediated cell efflux of R123 (in words) (human Pgp [1]) | SMILES | further results
not effective | C=CCc1ccccc1OCC(O)CNC(C)C (centres unmarked) [Alprenolol] | 
weak inhibitors | CCN(CC)CCCN(c1ccccc1)C1Cc2ccccc2C1 [Aprindine] | 
not effective | CC(C)[C@H]1CC[C@H](C(=O)N[C@H](Cc2ccccc2)C(=O)O)CC1 [Nateglinide] | 

More lines, now with the values behind:

SMILES | Ability to inhibit Pgp-mediated cell efflux of R123 (in words) (human Pgp [1]) | further results
O=C1Cc2cc(CCN3CCN(c4nsc5ccccc45)CC3)c(Cl)cc2N1 [Ziprasidone] | weak inhibitors | 
O=C1CCc2ccc(OCCCCN3CCN(c4cccc(Cl)c4Cl)CC3)cc2N1 [Aripiprazole] |  | Ability to inhibit Pgp-mediated cell efflux of R123 (in words) (human Pgp [2]): efficacious Pgp inhibitors
CC1(C)S[C@@H]2[C@H](NC(=O)[C@H](C(=O)O)c3ccsc3)C(=O)N2[C@H]1C(=O)O [Ticarcillin] | not effective | 
CN(C)CCC=C1c2ccccc2CCc2ccccc21 [Amitriptyline] |  | Pgp inhibitor classification (Pgp): inhibitor
[Na+].[Na+].[Na+].[O]=[V]([O-])([O-])[O-] [Vi, Sodium orthovanadate] |  | pIC50 (human Pgp [3]): ~3.15
